{
  "source": "paper PMC8427247",
  "about": "“Actinobacillus utilizes a binding protein–dependent ABC transporter to acquire the active form of vitamin B6” (The Journal of Biological Chemistry, 2021)",
  "key": {"P5PA WT [1]": {"target": "T1, P5PA WT (Actinobacillus pleuropneumoniae, UniProt B0BUC2)", "test": "Isothermal titration calorimetry (ITC), ligand titrated into P5PA", "format": "binding", "experimental": "The purification method described in the P5PA protein purification section was modified as follows in order to purify apo-P5PA for ITC. Before elution, P5PAwas denatured in the gravity column. To denature P5PA, 6 M guanidine hydrochloride (GdHCl) was applied to the column, after which a refolding step was performed by stepwise addition of 4.5 M GdHCl, 3 M GdHCl, and finally 1.5 M GdHCl. The protein was then washed with lysis buffer and eluted with elution buffer ([15]). The subsequent purification steps were the same as previously described.\nITC was performed using an auto-iTC200 (Microcal) at the Structure and Biophysical Core Facility within the Peter Gilgan Centre for Research & Learning (Hospital for Sick Children, Toronto, Canada). Runs consisted of titrating ligand loaded into the injection syringe against purified protein, which was loaded into the sample cell. About 45 μM of purified P5PA was stored in ITC buffer (20 mM Tris, pH 8, and 100 mM NaCl) at 4 °C. The same buffer was used to make solutions of 300 μM G6P, 300 μM P5P, and 45 μM bovine serum albumin. P5PA, bovine serum albumin, and ITC buffer alone were titrated with P5P or G6P. The parameter setting was 2 μl/injection for a total of 20 injections. Data applied to calculate binding constants were referenced against runs performed with ligand alone to control for the heat of ligand solvation."}, "P5PA WT [2]": {"target": "T1, P5PA WT", "test": "Microscale thermophoresis (MST) with fluorescently labeled P5PA", "format": "binding", "experimental": "(§1) P5PA was fluorescently labeled using RED-NHS Second Generation Protein Labeling Kit (NanoTemper). Briefly, 90 μl of purified apo-P5PA at 10 μM was mixed with 10 μl of the provided labeling dye at 300 μM. The mixture was incubated in dark for 30 min and loaded to a special gravity column that is pre-equilibrated in PBS with 0.05% Tween-20 (PBST). After washing the column with 550 μl of PBST, another 450 μl of PBST was added to elute the fluorescently labeled apo-P5PA. The yield of the labeled P5PA was determined by 280-nm readings made on a Nanodrop.\n(§2) A target compound was successively diluted in PBST by a dilution factor of two to make a total of 16 different concentrations. Then, 10 μl of the labeled P5PA was added to an equal volume of the diluted compounds and loaded to standard capillaries (NanoTemper). The Binding Affinity Mode of Monolith NT.115 (NanoTemper) was used to detect fluorescence changes and deduct Kd.\n(§3) Supplementary Table2. The concentrations of protein and compounds used in MST\n(§4) Labeled Protein Concentration Compound Highest Working\n(§5) P5PA 25 Pyridoxal-5’-phosphate (P5P) 1.40 µM\n(§6) P5PA 25 Pyridoxamine (PM) 448 mM"}, "AfuA H205A": {"system": "AfuA H205A", "set-up": "method as in PMID 26295949", "conditions": "AfuA H205A mutant; cited from earlier work"}, "AfuA D206A": {"system": "AfuA D206A", "set-up": "method as in PMID 26295949", "conditions": "AfuA D206A mutant; cited from earlier work"}, "AfuA E229A": {"system": "AfuA E229A", "set-up": "method as in PMID 26295949", "conditions": "AfuA E229A mutant; cited from earlier work"}, "P5PA H203A": {"target": "T2, P5PA H203A (Actinobacillus pleuropneumoniae, UniProt B0BUC2, H229A)", "T2 sequence (B0BUC2 26-343 H229A)": "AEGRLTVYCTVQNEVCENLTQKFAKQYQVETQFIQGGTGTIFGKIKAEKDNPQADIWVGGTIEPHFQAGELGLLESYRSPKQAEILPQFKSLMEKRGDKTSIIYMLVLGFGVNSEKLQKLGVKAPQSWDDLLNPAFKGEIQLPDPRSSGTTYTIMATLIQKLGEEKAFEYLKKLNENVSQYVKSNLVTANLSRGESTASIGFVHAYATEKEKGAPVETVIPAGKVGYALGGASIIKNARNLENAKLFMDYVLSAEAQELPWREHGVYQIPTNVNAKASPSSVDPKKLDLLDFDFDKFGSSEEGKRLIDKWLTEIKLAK", "test": "Microscale thermophoresis (MST) with fluorescently labeled P5PA mutant", "format": "binding", "experimental": "as §1, §2, §3, §4, §5, §6"}, "P5PA T149A": {"target": "T3, P5PA T149A (Actinobacillus pleuropneumoniae, UniProt B0BUC2, T175A)", "T3 sequence (B0BUC2 26-343 T175A)": "T2 sequence (B0BUC2 26-343 H229A)", "test": "Microscale thermophoresis (MST) with fluorescently labeled P5PA mutant", "format": "binding", "experimental": "as §1, §2, §3, §4, §5, §6"}, "P5PA Y103A": {"target": "T4, P5PA Y103A (Actinobacillus pleuropneumoniae, UniProt B0BUC2, Y129A)", "T4 sequence (B0BUC2 26-343 Y129A)": "T2 sequence (B0BUC2 26-343 H229A)", "test": "Microscale thermophoresis (MST) with fluorescently labeled P5PA mutant", "format": "binding", "experimental": "as §1, §2, §3, §4, §5, §6"}, "[3]": {"system": "E. coli K-12 ΔpdxB mutant", "test": "E. coli growth assay in M9 minimal media supplemented with P5P", "format": "cell-based, Escherichia coli", "experimental": "The ΔpdxB mutant of E. coli K-12 strain was obtained from the Keio collection ([45]). The ΔpdxB mutant was transformed with either pSC101, pSC101-P5PAB, or pSC101-P5PAB + AfuC and grown in LB broth overnight at 37 °C with shaking. The starters were then washed twice with M9 medium and inoculated at an absorbance of 0.05 at 600 nm into M9 medium supplemented with P5P. The P5P concentrations used were 0, 1, 2.5, and 5 μM. Growth assays were performed in both culture tubes and 100-well microplates ([15], [17]). For cell growth in culture tubes, 5 ml of P5P-supplemented M9 was used, and readings of absorbance at 600 nm were measured after a 23-h incubation at 37 °C with shaking. For cell growth in 100-well microplates, 200 μl of P5P-supplemented M9 was applied to each well, and microplates were incubated in a Bioscreen C microplate reader (Growth Curves USA) at 37 °C with shaking. Absorbance values at 600 nm were measured every 15 min for a time course of 40 h."}, "[4]": {"system": "WT strain of E. coli K-12", "test": "E. coli growth assay in M9 minimal media supplemented with P5P", "format": "cell-based, Escherichia coli", "conditions": "P5P 0 to 10 μM, 24 h incubation"}, "[5]": {"system": "A. pleuropneumoniae pdxS and pdxT disrupted mutants", "set-up": "method as in PMID 28448619", "conditions": "supplementation with 10 μM P5P; cited from earlier work"}, "[6]": {"conditions": "MST, P5PA WT, n = 3, read-out: Kd"}},
  "data": [
    {"compound": "O=C[C@H](O)[C@@H](O)[C@H](O)[C@H](O)COP(=O)(O)O", "note": "[G6P, glucose-6-phosphate]", "values": [
      {"measurement": "binding activity", "setting": "P5PA WT [1]; ITC, 300 μM ligand into 45 μM P5PA", "value": "no significant binding activity"},
      {"measurement": "released heat for each titration", "setting": "P5PA WT [1]; ITC, 300 μM ligand into 45 μM P5PA, insufficient to calculate a dissociation constant", "value": "approximately 3 kJ/mol"},
      {"measurement": "Kd", "setting": "P5PA WT [2]; [6]", "value": "11000 ± 3000", "unit": "µM"},
      {"measurement": "binding affinity", "setting": "AfuA H205A", "value": "undetectable"},
      {"measurement": "binding affinity", "setting": "AfuA D206A", "value": "undetectable"},
      {"measurement": "binding affinity", "setting": "AfuA E229A", "value": "undetectable"}
    ]},
    {"compound": "Cc1ncc(COP(=O)(O)O)c(C=O)c1O", "note": "[P5P, pyridoxal-5′-phosphate]", "values": [
      {"measurement": "Kd", "setting": "P5PA WT [1]", "value": "0.036 ± 0.007", "unit": "µM"},
      {"measurement": "Kd", "setting": "P5PA WT [2]", "value": "0.028 ± 0.015", "unit": "µM"},
      {"measurement": "Kd", "setting": "P5PA H203A", "value": "10 ± 4", "unit": "µM"},
      {"measurement": "Kd", "setting": "P5PA T149A", "value": "1.3 ± 0.3", "unit": "µM"},
      {"measurement": "Kd", "setting": "P5PA Y103A", "value": "17 ± 8", "unit": "µM"},
      {"measurement": "growth defects of the four transformants and the ΔpdxB mutant", "setting": "[3]; M9, P5P at 5 μM", "value": "partially restored"},
      {"measurement": "growth of ΔpdxB mutant expressing pSC101-P5PAB + AfuC", "setting": "[3]; M9, P5P at 1 and 2.5 μM, p < 0.01, two-tailed t test", "value": "rescued"},
      {"measurement": "growth of ΔpdxB mutant", "setting": "[3]; M9 minimal media, P5P 0 to 10 μM, 24 h incubation", "value": "severe growth deficiency in all conditions except P5P concentrations of 5 and 10 μM"},
      {"measurement": "growth of WT strain", "setting": "[4]", "value": "not affected by the concentration of supplemented P5P"},
      {"measurement": "growth of pdxS/pdxT mutants", "setting": "[5]", "value": "rescued growth"}
    ]},
    {"compound": "Cc1ncc(CO)c(CN)c1O", "note": "[PM, pyridoxamine]", "values": [
      {"measurement": "Kd", "setting": "P5PA WT [2]; [6]", "value": "8000 ± 4000", "unit": "µM"}
    ]},
    {"compound": "Cc1ncc(CO)c(C=O)c1O", "note": "[PL, pyridoxal]", "values": [
      {"measurement": "Kd", "setting": "P5PA WT [2]; [6]", "value": "13000 ± 4000", "unit": "µM"}
    ]}
  ]
}
